Values joined by “and” are separate entries in the source; they are usually repeats but may differ in a detail not shown here. Equal values may be shown once. Read-outs that look alike come from different tables or passages of the source. Marks after values point to notes of the source that are not given here.
Experiments:
[1] = Tolerability in rats, Example 2; assay type: in vivo; conditions: 5 or 15 mg/kg COMPOUND 2 or 40 mg/kg COMPOUND 1, po bid, 5 consecutive days
Protocol: Groups of female Sprague Dawley rats (n=5) were orally administered 5 or 15 mg/kg of COMPOUND 2 or 40 mg/kg COMPOUND 1 twice per day for 5 consecutive days to characterize compound tolerability. Additional groups of rats, treated with vehicle or 40 mg/kg COMPOUND 1, were terminated one hour after the a.m. dose on Days 1 and 3 for interim analysis of various parameters. Post-mortem analysis of all treated animals included standard necropsy with liver histology evaluation as well as standard hematology and serology. None of the animals were found dead or were euthanized (moribund) prior to scheduled termination. None of the treatments affected body weight or the organ:body weight ratio of selected organs (i.e., liver, thymus, spleen & uterus). […] Both compounds, at the highest dose tested, decreased the number of macrophages in the uterus (up to ˜60% for COMPOUND 2) on Day 5 however, this parameter was highly variable. […]
On Days 1 & 3, one hour after a.m. dose, five rats from Groups 1 and 4 were euthanized using CO2 asphyxiation and exsanguinated via cardiac puncture. […] The macrophage content of the uterus was determined immunohistochemically using a macrophage-specific (ED-1) antibody. […]

[2] = tested on: ED-1 positive macrophages in the uterus; test: Macrophage content of the uterus (ED-1 immunohistochemistry) in rats, Example 2; assay type: in vivo, rat; conditions: Day 5
Protocol: (§1) Groups of female Sprague Dawley rats (n=5) were orally administered 5 or 15 mg/kg of COMPOUND 2 or 40 mg/kg COMPOUND 1 twice per day for 5 consecutive days to characterize compound tolerability. Additional groups of rats, treated with vehicle or 40 mg/kg COMPOUND 1, were terminated one hour after the a.m. dose on Days 1 and 3 for interim analysis of various parameters. Post-mortem analysis of all treated animals included standard necropsy with liver histology evaluation as well as standard hematology and serology. None of the animals were found dead or were euthanized (moribund) prior to scheduled termination. None of the treatments affected body weight or the organ:body weight ratio of selected organs (i.e., liver, thymus, spleen & uterus). […] Both compounds, at the highest dose tested, decreased the number of macrophages in the uterus (up to ˜60% for COMPOUND 2) on Day 5 however, this parameter was highly variable.
(§2) On Days 1 & 3, one hour after a.m. dose, five rats from Groups 1 and 4 were euthanized using CO2 asphyxiation and exsanguinated via cardiac puncture. Blood samples (˜500 μL) were transferred to separate ethylenediaminetetraacetic acid (EDTA) microtainers and a complete blood count (CBC) was conducted using the Advia 120 Hematology System (Bayer Diagnostics, Tarrytown, N.Y.). Additional blood samples were transferred to separate microtainers (with or without anticoagulant) and processed for biomarker (i.e., MCSF-1) and serologic (i.e., AST/ALT) analysis. The liver and thymus were weighed and discarded. The spleens were weighed and zap-frozen and the uteri (without ovaries attached) were weighed and fixed in 10% buffered formalin. The macrophage content of the uterus was determined immunohistochemically using a macrophage-specific (ED-1) antibody.
On Day 5, rats were euthanized using carbon dioxide and exsanguinated via cardiac puncture. […]
Differences between treated and control groups were analyzed statistically by ANOVA with a Dunnett's Multiple Comparison post-test. […]

CSF-1 [3] = test: Plasma CSF-1 biomarker in rats, Example 2 (po bid 5 days); assay type: in vivo, rat; conditions: 5 mg/kg po bid, 5 consecutive days
Protocol: as §1
On Day 0, the rats were ear tagged, randomized into the treatment groups (Groups 1 & 4: n=15, Groups 2 & 3: n=5), weighed and treated (po, bid) with either vehicle (20% HPbCD) or the test articles as delineated in Table 2 (Allocation of Treatment Groups).
as §2
On Day 5, rats were euthanized using carbon dioxide and exsanguinated via cardiac puncture. Blood samples (˜500 μL) were collected and processed as described above for CBC, biomarker analysis and serology. The liver, spleen, thymus and uterus (without ovaries attached) were isolated, weighed and fixed in buffered formalin. The right knee with femur attached was isolated, trimmed and fixed in formalin. The left femur was isolated for determination of bone marrow cell counts. Liver histopathology was also conducted.
Differences between treated and control groups were analyzed statistically by ANOVA with a Dunnett's Multiple Comparison post-test. (p value; *:<0.05, **:<0.01).

[4] = Plasma compound levels in rats dosed 4 days, Examples 3 and 4; assay type: in vivo, rat; conditions: 2 hrs after final dose, individual animals; for concentration at 2 h: female, Sprague Dawley, rat, plasma, oral
Protocol: (§3) Method: Female Sprague Dawley Rats (150 to 200 g BW) from Charles River were administered vehicle or COMPOUND 3 at 10 and 40 mg/kg p.o. bid for 4 days. On the fifth day, a final dose was given and the animals were sacrificed 2 hrs later. Rats were euthanized using CO2 asphyxiation and exsanguinated via cardiac puncture. An aliquot of blood ([…]) was transferred to an EDTA tube and processed for plasma and for determination of plasma compound and CSF-1 biomarker levels.

[5] = as above; assay type: in vivo, rat; conditions: for concentration at 2 h: rat, plasma
uterine macrophages = test: Uterine ED1 stained area (uterine macrophage density) in rats dosed 4 days, Examples 3 and 4; assay type: in vivo, rat; conditions: for Uterine macrophages depleted: vs vehicle; for Uterine ED1 area/HPF, Mean (SEM) / Uterine ED1 area/HPF, Mean: group mean; for Uterine ED1 area/HPF: individual animals
Protocol: (§4) Pharmacodynamic activity in rats was determined to identify appropriate doses for efficacy studies. Circulating CSF-1 is cleared by sinusoidal macrophages when bound and internalized by FMS in a process that is partly dependent on FMS kinase activity. CSF-1 levels rise when FMS is inhibited, or when FMS inhibition reduces the number/function of macrophages. Uterine macrophages are short-lived and FMS-dependent. Quantitation of uterine macrophage density and plasma CSF-1 levels thereby provided pharmacodynamic endpoints measurable in rats following 4 days of dosing.
as §3, with “Method: Female Sprague Dawley Rats (150 to 200 g BW) from Charles River were administered vehicle or COMPOUND 3 at 10 and 40 mg/kg p.o. bid for 4 days.” left out
Spleens, livers and uteri (without ovaries) were isolated and weighed and uteri were fixed in formalin. Uteri sections were stained for ED1 and ED-1 stained area (arbitrary units) at 200× magnification was determined using Image-Pro Plus software.

CSF-1 [6] = test: Plasma CSF-1 in rats dosed 4 days, Examples 3 and 4 (mouse CSF-1 ELISA); assay type: in vivo, rat; conditions: for CSF-1 levels elevated: vs vehicle; for CSF-1, pg/ml, Mean (SEM) / Plasma CSF-1, pg/ml, Mean: group mean; for CSF-1, pg/ml, Mean (SEM) / CSF-1, pg/ml (plasma): vehicle mean 127; for CSF-1, pg/ml (plasma) / Plasma CSF-1, pg/ml: individual animals; for Plasma CSF-1, pg/ml, Mean / Plasma CSF-1, pg/ml: vehicle mean 124
Protocol: as §4
as §3, with “Method: Female Sprague Dawley Rats (150 to 200 g BW) from Charles River were administered vehicle or COMPOUND 3 at 10 and 40 mg/kg p.o. bid for 4 days.” left out

[7] = 10 mg/kg p.o. bid 4 days, vehicle mean 9808
[8] = 40 mg/kg p.o. bid 4 days, vehicle mean 9808
[9] = 10 mpk, dosed 4 days, vehicle mean 2057
[10] = 20 mpk, dosed 4 days, vehicle mean 2057
[11] = 50 mpk, dosed 4 days, vehicle mean 2057

## Cc1ncc(-c2c(C3=CCCCC3)c3cc(C#N)ccc3[nH]c2=O)[nH]1 [COMPOUND 2]
[1]
  Effect on appearance, behavior, body weight or organ:body weight ratio (liver, spleen, thymus): did not have an observable effect
[2]; highest dose tested (COMPOUND 2 15 mg/kg, COMPOUND 1 40 mg/kg po bid), highly variable
  Effect on macrophage content of the uterus: significant effect
[2]; up to, dose dependent (5 and 15 mg/kg po bid)
  Decrease in number of ED-1 positive macrophages per field in the uterus: ~60%
CSF-1 [3]
  Effect on plasma concentrations of CSF-1: failed to significantly affect plasma concentrations of CSF-1

## CONC(=O)c1cn(-c2ccc3c(c2)CCC3)c2nc(Nc3ccc(C4CCN(C)CC4)cc3)ncc2c1=O [COMPOUND 3]
[4]; 10 mg/kg p.o. bid 4 days
  Compound, ng/ml (plasma): 2080 ng/mL and 2800 ng/mL
[4]; 40 mg/kg p.o. bid 4 days
  Compound, ng/ml (plasma): 5060 ng/mL and 5730 ng/mL
[4]; 10 mg/kg, 10 mg/kg p.o. bid 4 days
  concentration at 2 h: 2730 ng/mL
[4]; 40 mg/kg, 40 mg/kg p.o. bid 4 days
  concentration at 2 h: 5320 ng/mL
[5]; female, Sprague Dawley, oral, 10 mg/kg, 10 mg/kg p.o. bid 4 days, 2 hrs after final dose, group mean, read-out: Compound, ng/ml, Mean (SEM)
  concentration at 2 h: 2540 ng/mL
[5]; female, Sprague Dawley, oral, 40 mg/kg, 40 mg/kg p.o. bid 4 days, 2 hrs after final dose, group mean, read-out: Compound, ng/ml, Mean (SEM)
  concentration at 2 h: 5370 ng/mL
Uterine macrophages; 10 mg/kg p.o. bid 4 days
  Uterine macrophages depleted: 51%
Uterine macrophages; [7]
  Uterine ED1 area/HPF, Mean (SEM): 4855 arbitrary units
  Uterine ED1 area/HPF: 4919 arbitrary units and 7609 arbitrary units and 2037 arbitrary units
Uterine macrophages; 40 mg/kg p.o. bid 4 days
  Morphology of uterine macrophages (ED-1 staining): did not have the normal reticulated morphology
  Uterine macrophages depleted: 81%
Uterine macrophages; [8]
  Uterine ED1 area/HPF, Mean (SEM): 1836 arbitrary units
  Uterine ED1 area/HPF: 929 arbitrary units and 1721 arbitrary units and 2858 arbitrary units
CSF-1 [6]; 10 mg/kg p.o. bid 4 days
  CSF-1 levels elevated: 4.5 fold
  CSF-1, pg/ml, Mean (SEM): 570 pg/mL
  CSF-1, pg/ml (plasma): 651 pg/mL and 482 pg/mL and 577 pg/mL
CSF-1 [6]; 40 mg/kg p.o. bid 4 days
  CSF-1 levels elevated: 5.5 fold
  CSF-1, pg/ml, Mean (SEM): 698 pg/mL
  CSF-1, pg/ml (plasma): 548 pg/mL and 746 pg/mL and 801 pg/mL

## CC1(C)CC=C(c2nc(C3CC(C)(C)OC(C)(C)C3)ccc2NC(=O)c2ncc(C#N)[nH]2)CC1 [COMPOUND 4]
[5]; 10 mpk, dosed 4 days, 2 hours after last dose, group mean
  Plasma compound, ng/ml, Mean: 1414 (186) ng/ml
[5]; 10 mpk, dosed 4 days, 2 hours after last dose, individual animals
  Plasma compound: 968 ng/mL and 1560 ng/mL and 1790 ng/mL and 1680 ng/mL
[5]; 20 mpk, dosed 4 days, 2 hours after last dose, group mean
  Plasma compound, ng/ml, Mean: 2636 (172) ng/ml
[5]; 20 mpk, dosed 4 days, 2 hours after last dose, individual animals
  Plasma compound: 2670 ng/mL and 2320 ng/mL and 2470 ng/mL and 3210 ng/mL
[5]; 50 mpk, dosed 4 days, 2 hours after last dose, group mean
  Plasma compound, ng/ml, Mean: 6612 (881) ng/ml
[5]; 50 mpk, dosed 4 days, 2 hours after last dose, individual animals
  Plasma compound: 6090 ng/mL and 4800 ng/mL and 9390 ng/mL and 7110 ng/mL
[5]; 10 mpk, dosed 4 days, 2 hours after last dose, group mean, read-out: Plasma compound, ng/ml, Mean
  concentration at 2 h: 1410 ng/mL
[5]; 10 mpk, dosed 4 days, 2 hours after last dose, individual animals, read-out: Plasma compound
  concentration at 2 h: 1070 ng/mL
[5]; 20 mpk, dosed 4 days, 2 hours after last dose, individual animals, read-out: Plasma compound
  concentration at 2 h: 2510 ng/mL
[5]; 50 mpk, dosed 4 days, 2 hours after last dose, group mean, read-out: Plasma compound, ng/ml, Mean
  concentration at 2 h: 6610 ng/mL
[5]; 50 mpk, dosed 4 days, 2 hours after last dose, individual animals, read-out: Plasma compound
  concentration at 2 h: 5670 ng/mL
[5]; dosed 4 days, 2 hours after last dose, group mean, read-out: Plasma compound, ng/ml, Mean
  concentration at 2 h: 2640 ng/mL
Uterine macrophages; 10 mpk, dosed 4 days
  Uterine macrophages depleted: 27%
Uterine macrophages; [9]
  Uterine ED1 area/HPF, Mean: 1501 arbitrary units
  Uterine ED1 area/HPF: 1003 arbitrary units and 1233 arbitrary units and 1174 arbitrary units and 1021 arbitrary units and 3075 arbitrary units
Uterine macrophages; 20 mpk, dosed 4 days
  Uterine macrophages depleted: 28%
Uterine macrophages; [10]
  Uterine ED1 area/HPF, Mean: 1476 arbitrary units
  Uterine ED1 area/HPF: 1419 arbitrary units and 1995 arbitrary units and 1164 arbitrary units and 1560 arbitrary units and 1244 arbitrary units
Uterine macrophages; 50 mpk, dosed 4 days
  Uterine macrophages depleted: 44%
Uterine macrophages; [11]
  Uterine ED1 area/HPF, Mean: 1149 arbitrary units
  Uterine ED1 area/HPF: 681 arbitrary units and 1431 arbitrary units and 2955 arbitrary units and 585 arbitrary units and 94 arbitrary units
CSF-1 [6]; 10 mpk, dosed 4 days
  CSF-1 levels elevated: 28%
  Plasma CSF-1, pg/ml: 152 pg/mL and 165 pg/mL and 139 pg/mL and 157 pg/mL and 184 pg/mL
CSF-1 [6]; 10 mpk, dosed 4 days, p < 0.05 vs. Vehicle
  Plasma CSF-1, pg/ml, Mean: 159* pg/ml
CSF-1 [6]; 20 mpk, dosed 4 days
  CSF-1 levels elevated: 79%
  Plasma CSF-1, pg/ml: 211 pg/mL and 163 pg/mL and 196 pg/mL and 238 pg/mL and 249 pg/mL
CSF-1 [6]; 20 mpk, dosed 4 days, p < 0.005 vs. Vehicle
  Plasma CSF-1, pg/ml, Mean: 211** pg/ml
CSF-1 [6]; 50 mpk, dosed 4 days
  CSF-1 levels elevated: 363%
  Plasma CSF-1, pg/ml: 540 pg/mL and 696 pg/mL and 506 pg/mL and 585 pg/mL and 541 pg/mL
CSF-1 [6]; 50 mpk, dosed 4 days, p < 0.005 vs. Vehicle
  Plasma CSF-1, pg/ml, Mean: 574** pg/ml
CSF-1 [6]; rats dosed 4 days
  Dose with a threshold level of activity for CSF-1 elevation and uterine macrophage depletion: 10 mg/kg

Reference: patent publication US20090148883A1, “BIOMARKER FOR ASSESSING RESPONSE TO FMS TREATMENT” (priority 2007, published 2009)
